Test results reported in PMC4004266, “Understanding the Structural Requirements for Activators of the Kef Bacterial Potassium Efflux System” (Biochemistry, 2014).
Where “and” joins values, the source holds several entries; their conditions need not be identical. Equal values may be shown once. Entries after “also recorded” stand apart in the source; their conditions may differ.

Assays:
SdKef = test: Whole cell potassium efflux assay; format: cell-based, Shewanella denitrificans OS217; conditions: for K+ efflux (activation of Kef): E. coli MJF335 transformed with wild-type SdKef, grown with GSH, electrophile 0.5 mM
Description: Potassium efflux experiments were performed as described previously.[7] Potassium efflux was measured, using an ion selective potassium electrode (ELIT 8031, Nico2000) and a lithium acetate reference electrode (ELIT 003n) with a four-channel ion analyzer (ELIT4), in 2 s intervals. Freshly transformed cells [either E. coli MJF335 cells lacking KefB, KefC, and GshA or MJF645 cells (lacking KefF and KefG in addition to KefB, KefC, and GshA)] were cultured in K115 minimal medium, containing 1 mM GSH, at 37 °C to an OD650 of ∼0.8–1.[11] The cells were filtered and washed with K10 buffer before being suspended in 5 mL of potassium-free K0 buffer. The cells were added to 30 mL of K0 medium in a stirred vessel held at 37 °C with equilibrated electrodes inserted. After 5 min, the electrophile was added to a final concentration of 0.5 mM [except for methylglyoxal (MG), which was added at a concentration of 0.8 mM[6]]. Rate constants were obtained by fitting exponentials to the change in potassium concentration after addition of the electrophile using Origin version 8.0 (Originlab).[7]

SdKefQCTD [1] = biological target: T1, SdKefQCTD (Shewanella denitrificans, UniProt Q12SB3); test: Qualitative fluorescence competition assay with DNGSH (FB:FL ratio); format: binding, Shewanella denitrificans OS217; conditions: 1 mM competing ligand, 6 μM SdKefQCTD, 5 μM DNGSH, 525 nm
SdKefQCTD [2] = biological target: T1, SdKefQCTD; test: Direct titration of DNGSH, fluorescence emission peak position (λmax); format: binding, Shewanella denitrificans OS217
Description: (§1) Measurements were performed in buffer C, using a 100 μL cuvette with 3 mm excitation and emission path lengths (Hellma GmbH & Co.) at 20 °C and an Edinburgh Instruments FLS920 spectrometer. Samples containing SdKefQCTD and DNGSH were excited at 340 nm, and emission spectra were measured from 395 to 670 nm. The steady state fluorescence anisotropy was measured with excitation at 340 nm and emission between 540 and 560 nm. Competition experiments were performed using samples pretreated with excess DNGSH, at a 2× protein concentration, and titrated with the ligand under study.
The data were fit using a standard saturation isotherm (see the Supporting Information for further information). For DNGSH fluorescence, λL was measured directly and found to be 572.5 nm. Inverse titrations with high SdKefQCTD concentrations allowed a good estimation of the emission maximum for the bound form (λML) as 530 nm with a quantum yield (Q) of 4. These three parameters were kept fixed during the fitting while Kd and n were optimized. […]
(§2) Analysis of ligand binding by fluorescence spectroscopy. […]
(§3) The conservation of mass for SdKefQCTD is given by n[M]0 = [M] + [ML] where the total concentration of SdKefQCTD subunits is [M]0, n is the number of active binding sites per M, [L]0 is the total concentration of ligand and the concentration of free ligand is [L]. […] If these expressions are substituted into equation 1, a quadratic equation for the protein-ligand complex [ML] is obtained that can be solved for [ML] and expressed as the fraction of bound ligand, fB (equation 2). […]
Two fluorescence parameters were used to obtain fB from experimental data. The peak position in the emission spectrum, λmax, was obtained by fitting a skewed Gaussian to the experimental spectra as described earlier (1). λmax was used as it was less easily disturbed than fluorescence intensity. Secondly, steady state fluorescence anisotropy, robs, was used. […]
sums depending on the fluorescence intensity of the bound and free ligand, IML and […]

SdKefQCTD [3] = biological target: T1, SdKefQCTD; test: Steady state fluorescence anisotropy titration of DNGSH; format: binding, Shewanella denitrificans OS217
Description: as §1
The data were fit using a standard saturation isotherm (see the Supporting Information for further information). For DNGSH fluorescence, λL was measured directly and found to be 572.5 nm. […]
as §2, §3
Two fluorescence parameters were used to obtain fB from experimental data. […]

SdKefQCTD [4] = biological target: T1, SdKefQCTD; test: Isothermal titration calorimetry (ITC); format: binding, Shewanella denitrificans OS217; conditions: for no. of sites (n): sites per subunit
SdKefQCTD Q419K mutant = test: DNGSH titration to Q419K mutant (background binding), emission peak; parameters: species or system Shewanella denitrificans OS217; conditions: titration of DNGSH to 7 μM SdKefQCTD Q419K
SdKefQCTD [5] = biological target: T1, SdKefQCTD; test: Quantitative fluorescence competition experiment using DNGSH as probe (emission peak); format: binding, Shewanella denitrificans OS217; conditions: for no. of sites (n): competition with DNGSH, sites per subunit
SdKefQCTD [6] = biological target: T1, SdKefQCTD; test: Differential scanning fluorimetry (DSF); format: binding, Shewanella denitrificans OS217; conditions: 1 mM ligand, relative to protein alone
[7] = biological target: SdKefQCTD (soluble construct of the cytosolic regulatory domain of Kef from Shewanella denitrificans OS217, including the Q-linker) (Shewanella denitrificans OS217); test: static multiangle light scattering; purified SdKefQCTD in solution; unpublished observations of the authors; 52.0 ± 2.5 kDa particles against 26.4 kDa per monomer
[8] = emission peak, competition with DNGSH (Kd 6 μM used for DNGSH)
[9] = ITC, 25 °C, one-site model, read-out: Kd

T1 sequence (Q12SB3 entry or part of it): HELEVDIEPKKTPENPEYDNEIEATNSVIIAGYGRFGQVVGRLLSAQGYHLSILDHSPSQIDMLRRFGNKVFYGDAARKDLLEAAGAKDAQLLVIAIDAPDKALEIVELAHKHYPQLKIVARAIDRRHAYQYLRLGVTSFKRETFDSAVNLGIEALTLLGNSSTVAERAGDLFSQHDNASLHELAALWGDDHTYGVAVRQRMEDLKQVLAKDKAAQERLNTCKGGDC

O=C1C=CC(=O)N1C1CCCCC1 [Compound 17, N-cyclohexylmaleimide]
K+ efflux (activation of Kef) (SdKef): causes rapid K^+ efflux

O=C1C=CC(=O)N1Cc1ccccc1 [Compound 16]
K+ efflux (activation of Kef) (SdKef): caused significant K^+ release

N[C@@H](CCC(=O)N[C@@H](CSC1CC(=O)CC1=O)C(=O)NCC(=O)O)C(=O)O (stereo partly shown) [Compound 8]
DNGSHbound:DNGSHligand ratio of fluorescence (FB:FL), Kef binding (SdKefQCTD [1]): reduced binding affinity for Kef

CCN1C(=O)C=CC1=O [NEM, N-ethylmaleimide]
rate constant for K+ efflux (SdKef; SdKef expressed in E. coli strain lacking KefFC and KefGB (MJF645), after addition of electrophile): high rate constant for K^+ efflux

CN(C)c1cccc2c(S(=O)(=O)NCCCSC[C@H](NC(=O)CC[C@H](N)C(=O)O)C(=O)NCC(=O)O)cccc12 [DNGSH, S-{[5-(dimethylamino)naphthalen-1-yl]sulfonylaminopropyl} glutathione]
Kd (SdKefQCTD [2]): 6 ± 2 µM
Hill coefficient (nH) (SdKefQCTD [2]; DNGSH binding): 1
no. of sites (n) (SdKefQCTD [2]; emission peak, active binding sites per subunit): 0.6 ± 0.2
Kd (SdKefQCTD [3]): 8 ± 2 µM
no. of sites (n) (SdKefQCTD [3]; fluorescence anisotropy, sites per subunit): 1.1 ± 0.8
Kd (SdKefQCTD [4]): 19 ± 6 µM
no. of sites (n) (SdKefQCTD [4]; ITC): 0.7 ± 0.1 and 0.7 ± 0.2
binding to Q419K mutant (SdKefQCTD Q419K mutant): unable to bind

C=CC(=O)CCCCC [Compound 22, 1-octen-3-one]
K+ efflux (activation of Kef) (SdKef): less effective at causing K^+ release; also recorded: causes little K^+ efflux

CCCCCC(=O)CCSC[C@H](NC(=O)CC[C@H](N)C(=O)O)C(=O)NCC(=O)O [Compound 12]
Kd (SdKefQCTD [5]; [8]): 4.4 ± 0.5 µM
no. of sites (n) (SdKefQCTD [5]; emission peak): 0.81 ± 0.05

CCN1C(=O)CC(SCC(NC(=O)CCC(N)C(=O)O)C(=O)NCC(=O)O)C1=O (stereo not shown) [ESG, N-ethylsuccinimido-S-glutathione, reference compound]
Kd (SdKefQCTD [4]; [9]): 23 ± 4 µM
no. of sites (n) (SdKefQCTD [4]; ITC): 0.38 ± 0.05
Kd (SdKefQCTD [5]; [8]): 12 ± 3 µM
no. of sites (n) (SdKefQCTD [5]; emission peak): 0.7 ± 0.2
DNGSHbound:DNGSHligand ratio of fluorescence (FB:FL), Kef binding (SdKefQCTD [1]): high FB:FL ratios

CC(C)(C)N1C(=O)CC(SCC(NC(=O)CCC(N)C(=O)O)C(=O)NCC(=O)O)C1=O (stereo not shown) [Compound 5, N-tert-butylsuccinimido-S-glutathione]
Kd (SdKefQCTD [4]; [9]): 6.7 ± 0.27 µM
no. of sites (n) (SdKefQCTD [4]; ITC): 0.41 ± 0.04
Kd (SdKefQCTD [5]; [8]): 0.4 ± 0.2 µM
no. of sites (n) (SdKefQCTD [5]; emission peak): 0.7 ± 0.2
DNGSHbound:DNGSHligand ratio of fluorescence (FB:FL), Kef binding (SdKefQCTD [1]): greatest Kef affinity
change in protein melting temperature (ΔTm) (SdKefQCTD [6]): greatest ΔTm

SdKefQCTD (soluble construct of the cytosolic regulatory domain of Kef from Shewanella denitrificans OS217, including the Q-linker) (domain or fragment)
stoichiometry N [7]: 2 subunits

N[C@@H](CCC(=O)N[C@@H](CSC1CCCC1=O)C(=O)NCC(=O)O)C(=O)O (stereo partly shown) [Compound 9]
DNGSHbound:DNGSHligand ratio of fluorescence (FB:FL), Kef binding (SdKefQCTD [1]): reduced binding affinity for Kef
K+ efflux (activation of Kef) (SdKef): no activation of K^+ efflux

N[C@@H](CCC(=O)N[C@@H](CS)C(=O)NCC(=O)O)C(=O)O [GSH, glutathione, reference compound]
ITC signal on titration (SdKefQCTD [4]; could not be analyzed, data not shown): Only small signals
Kd (SdKefQCTD [5]): 900 ± 200 µM
no. of sites (n) (SdKefQCTD [5]; emission peak): 0.83 ± 0.04
DNGSHbound:DNGSHligand ratio of fluorescence (FB:FL), Kef binding (SdKefQCTD [1]): low FB:FL ratios
change in protein melting temperature (ΔTm) (SdKefQCTD [6]): negligible change
